Measurements: patent US20230293530A1, “AGENTS FOR SENSITIZING SOLID TUMORS TO TREATMENT” (Yeda Research and Development Co. Ltd., priority 2020, published 2023)

Test system: 4T1 breast cancer cells
Assay: Nucleotide levels by LC-MS in 4T1 cells with or without mizoribine (or L-Name)
Format: cell-based, murine
Settings: 300 µM mizoribine, 24 h
Procedure: B) The purine/pyrimidine ratio is increased upon glucose deprivation in murine breast cancer cells. 4T1 cells were grown in the absence of glucose for 24h (baseline) and 48h and quantified by liquid chromatography-mass spectrometry (LC-MS). Nucleotide levels were measured in µg/ml and corrected for protein concentration. Purine/pyrimidine ratio was calculated by dividing (AMP+GMP) by (UMP+CMP) relative concentrations. C) ASS1 inhibition decreases the purine/pyrimidine ration under glucose deprivation. 4T1 cells were grown in the presence or absence of glucose for 48 h and analysed as in 1B. […] Cells were grown and treated as in 5B. […] 4T1 cells were grown either with or without 300 µM mizoribine for 24 h. Nucleotide levels were measured by LC-MS. […] Each experiment was conducted with biological and technical replicates and repeated at least three times. G) A549 cells were grown for 48 hr in control medium or supplemented with 1.2 µM Methotrexate (Holland-Moran). Nucleotide levels were measured as described below by LC-MS. Purine/pyrimidine ratio was calculated by dividing (AMP+GMP+ATP+GTP) concentration by (UMP+CMP+TMP+UTP+CTP+TTP) concentration before and after methotrexate. All error bars represent SER. *P<0.05, **P<0.01. Each experiment was conducted with biological and technical replicates and repeated at least three times.
A) Purine/pyrimidine ratio is increased upon nutrient deprivation in […] colon cancer cells. MC38 cells were grown in either regular medium or in medium without glucose for 24 h. Nucleotide levels were measured by LC-MS. Purine/pyrimidine ratio was calculated by dividing (AMP+GMP) AUC by (UMP+CMP) AUC. B) 4T1 cells with and without shASS1 were grown in glucose free medium either supplemented or not with 10 mM L-Name for 48 hrs. Nucleotide levels were measured by LC-MS. Purine/pyrimidine ratio was calculated by dividing the sum levels of (AMP+GMP) by the sum levels of (UMP+CMP+TMP). […] MC38 cells were grown either with or without 300 µM mizoribine for 24 h. Nucleotide levels were measured by LC-MS. […] 4T1 (left panel) and MC38 cells (right panel) were grown for 24 h with or without 300 µM mizoribine. Cell viability was measured by crystal violet staining. Each experiment was conducted with biological and technical replicates and repeated at least three times. All error bars represent SER. * P<0.05, ** denotes P<0.01, ***P<0.001.
LC-MS analysis: The LC-MS/MS instrument consisting of an Acquity I-class UPLC system (Waters) and Xevo TQ-S triple quadrupole mass spectrometer (Waters), equipped with an electrospray ion source, and operated in positive ion mode was used for analysis of nucleoside monophosphates. MassLynx and TargetLynx software (version 4.1, Waters) were applied for the acquisition and analysis of data. Chromatographic separation was done on a 100 mm × 2.1 mm internal diameter, 1.8-µm UPLC HSS T3 column equipped with 50 mm × 2.1 mm internal diameter, 1.8-µm UPLC HSS T3 pre-column (both Waters Acquity) with mobile phases A (10 mM ammonium acetate and 5 mM ammonium hydrocarbonate buffer, pH 7.65 adjusted with 10% acetic acid) and B (acetonitrile) at a flow rate of 0.3 mL min-1 and column temperature 25° C. A gradient was used as follows: for 0-3 min the column was held at 0.2% B, then 3-3.5 min a linear increase to 100% B, 3.5-4.0 min held at 100% B, 4.0-4.5 min back to 0.2% B and equilibration at 0.2% B for 2.5 min. […] Nucleotide concentration was calculated using a standard curve of the relevant nucleotide concentration in each sample. […]

[1] = corrected for protein concentration

## NC(=O)c1ncn([C@@H]2O[C@H](CO)[C@@H](O)[C@H]2O)c1O [Mizoribine, mizoribine]
  purine/pyrimidine ratio (AMP+GMP)/(UMP+CMP): decreased purine/pyrimidine ratio
[1]
  AMP level, Mizoribine treatment: 483.2 µg/ml/ pt
  CMP level, Mizoribine treatment: 7.3 µg/ml/ pt
  GMP level, Mizoribine treatment: 28.46 µg/ml/ pt
  UMP level, Mizoribine treatment: 38.39 µg/ml/ pt
